# Laboratory results reported in ChEMBL document CHEMBL1134166, “The identification of alpha-ketoamides as potent inhibitors of hepatitis C virus NS3-4A proteinase” (Bioorg Med Chem Lett, 2001).
# *1 amine or outer side, *2 acyl side, *3 side chain or, on linkers, in order; H or OH if unused. Where a SMILES comes first, the peptide text is derived from it. [ ]: non-standard residue; d: D form. The star is where a group is joined. X1 = O=C(C(=O)[*:2])[C@H](CC(F)(F)F)N[*:1]; NH(1S-phenylpropyl) = CC[C@H](N*)c1ccccc1; NH(1R-phenylethyl) = C[C@@H](N*)c1ccccc1; NH(1S-phenylethyl) = C[C@H](N*)c1ccccc1; Phe(2-Me) = Cc1ccccc1C[C@H](N)C(=O)O; NleCONH2 = CCCC[C@H](N*)C(=O)C(N)=O; NH(4-OH-benzyl) = Oc1ccc(CN*)cc1; X3 = CCCC[C@@H](N*)C(=O)C(N)=O; X5 = CC[C@H](N*)c1ccc2ccccc2c1; X6 = C[C@H](N*)c1ccc2ccccc2c1; Suc = O=C(CCC(=O)[*:2])[*:1]; Tle = CC(C)(C)[C@H](N)C(=O)O; X4 = CC(C)[C@H](N*)c1ccccc1; NHBn = c1ccc(CN*)cc1; X2 = COc1cccc(CN*)c1
# Target: T1, Neutrophil elastase (Homo sapiens, UniProt P08246)
# T1 sequence (P08246 whole entry): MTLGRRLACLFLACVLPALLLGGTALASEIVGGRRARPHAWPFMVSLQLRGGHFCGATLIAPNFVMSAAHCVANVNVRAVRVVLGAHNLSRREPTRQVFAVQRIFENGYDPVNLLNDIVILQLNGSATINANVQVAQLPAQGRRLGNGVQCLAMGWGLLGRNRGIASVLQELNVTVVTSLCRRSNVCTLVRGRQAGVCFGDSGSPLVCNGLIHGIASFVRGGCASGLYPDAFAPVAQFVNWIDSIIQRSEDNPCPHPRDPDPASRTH
# Assay: Compound was tested for inhibition of Elastase
row,SMILES,IC50 [nM]
1,CCCC[C@@H](NC(=O)[C@H](CC(C)C)NC(=O)[C@@H](NC(=O)[C@H](Cc1ccccc1C)NC(=O)[C@H](CCC(=O)O)NC(=O)[C@H](CC(=O)O)NC(=O)CCC(=O)O)C(C)(C)C)C(=O)C(N)=O (Suc-DE[Phe(2-Me)][Tle]L-X3),12000

# Target: Hepatitis C virus serine protease, NS3/NS4A (Hepatitis C virus, UniProt A3EZI9+D2K2A8)
# Assay: (§1) Inhibition of hepatitis c virus Non structural protein 3 protease/Non structural protein 4A protease
# Assay type: protein-complex assay, Hepacivirus hominis
# Hepatitis C virus serine protease, NS3/NS4A (Hepatitis C virus, UniProt A3EZI9+D2K2A8), sequence (D2K2A8 whole entry): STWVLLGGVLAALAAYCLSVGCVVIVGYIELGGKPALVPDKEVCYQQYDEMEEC
# Hepatitis C virus serine protease, NS3/NS4A (Hepatitis C virus, UniProt A3EZI9+D2K2A8), sequence (A3EZI9 whole entry): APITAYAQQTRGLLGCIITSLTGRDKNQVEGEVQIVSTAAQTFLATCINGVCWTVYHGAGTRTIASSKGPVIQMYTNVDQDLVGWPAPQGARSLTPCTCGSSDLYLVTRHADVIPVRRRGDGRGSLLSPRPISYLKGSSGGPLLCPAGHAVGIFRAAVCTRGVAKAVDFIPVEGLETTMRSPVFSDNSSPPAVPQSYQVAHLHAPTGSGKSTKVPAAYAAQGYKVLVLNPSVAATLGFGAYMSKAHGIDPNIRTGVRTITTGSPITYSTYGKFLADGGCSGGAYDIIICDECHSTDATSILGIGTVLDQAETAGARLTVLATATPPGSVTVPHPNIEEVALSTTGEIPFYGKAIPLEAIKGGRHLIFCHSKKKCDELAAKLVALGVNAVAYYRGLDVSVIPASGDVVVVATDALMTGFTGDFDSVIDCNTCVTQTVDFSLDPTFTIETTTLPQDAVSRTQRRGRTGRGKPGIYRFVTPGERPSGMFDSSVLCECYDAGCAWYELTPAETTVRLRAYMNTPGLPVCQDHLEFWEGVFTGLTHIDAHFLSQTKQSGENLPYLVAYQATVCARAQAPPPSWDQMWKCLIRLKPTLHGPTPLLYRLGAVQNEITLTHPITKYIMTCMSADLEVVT
row,SMILES,IC50 [nM]
1,CCCC[C@H](NC(=O)[C@H](CC(C)C)NC(=O)[C@@H](NC(=O)[C@H](Cc1ccccc1C)NC(=O)[C@H](CCC(=O)O)NC(=O)[C@H](CC(=O)O)NC(=O)CCC(=O)O)C(C)(C)C)C(=O)C(N)=O (Suc-DE[Phe(2-Me)][Tle]L-NleCONH2),11

# Target: Hepatitis C virus serine protease, NS3/NS4A (Hepatitis C virus, UniProt D2K2A8+A3EZI9)
# Assay: as §1
# Assay type: protein-complex assay, Hepacivirus hominis
# Hepatitis C virus serine protease, NS3/NS4A (Hepatitis C virus, UniProt D2K2A8+A3EZI9), sequence (D2K2A8 whole entry): as the sequence (D2K2A8 whole entry) above
# Hepatitis C virus serine protease, NS3/NS4A (Hepatitis C virus, UniProt D2K2A8+A3EZI9), sequence (A3EZI9 whole entry): as the sequence (A3EZI9 whole entry) above
row,SMILES,IC50 [nM]
1,Cc1ccccc1C[C@H](NC(=O)[C@H](CCC(=O)O)NC(=O)[C@H](CC(=O)O)NC(=O)CCC(=O)O)C(=O)N[C@H](C(=O)N[C@@H](CC(C)C)C(=O)N[C@@H](CC(F)(F)F)C(=O)C(=O)NCc1ccccc1)C(C)(C)C (Suc-DE[Phe(2-Me)][Tle]L[X1]-NHBn),4
2,COc1cccc(CNC(=O)C(=O)[C@H](CC(F)(F)F)NC(=O)[C@H](CC(C)C)NC(=O)[C@@H](NC(=O)[C@H](Cc2ccccc2C)NC(=O)[C@H](CCC(=O)O)NC(=O)[C@H](CC(=O)O)NC(=O)CCC(=O)O)C(C)(C)C)c1 (Suc-DE[Phe(2-Me)][Tle]L[X1]-X2),6
3,Cc1ccccc1C[C@H](NC(=O)[C@H](CCC(=O)O)NC(=O)[C@H](CC(=O)O)NC(=O)CCC(=O)O)C(=O)N[C@H](C(=O)N[C@@H](CC(C)C)C(=O)N[C@@H](CC(F)(F)F)C(=O)C(=O)N[C@H](c1ccccc1)C(C)C)C(C)(C)C (Suc-DE[Phe(2-Me)][Tle]L[X1]-X4),7
4,CC[C@H](NC(=O)C(=O)[C@H](CC(F)(F)F)NC(=O)[C@H](CC(C)C)NC(=O)[C@@H](NC(=O)[C@H](Cc1ccccc1C)NC(=O)[C@H](CCC(=O)O)NC(=O)[C@H](CC(=O)O)NC(=O)CCC(=O)O)C(C)(C)C)c1ccc2ccccc2c1 (Suc-DE[Phe(2-Me)][Tle]L[X1]-X5),8
5,Cc1ccccc1C[C@H](NC(=O)[C@H](CCC(=O)O)NC(=O)[C@H](CC(=O)O)NC(=O)CCC(=O)O)C(=O)N[C@H](C(=O)N[C@@H](CC(C)C)C(=O)N[C@@H](CC(F)(F)F)C(=O)C(=O)N[C@@H](C)c1ccc2ccccc2c1)C(C)(C)C (Suc-DE[Phe(2-Me)][Tle]L[X1]-X6),4
6,Cc1ccccc1C[C@H](NC(=O)[C@H](CCC(=O)O)NC(=O)[C@H](CC(=O)O)NC(=O)CCC(=O)O)C(=O)N[C@H](C(=O)N[C@@H](CC(C)C)C(=O)N[C@@H](CC(F)(F)F)C(=O)C(=O)N[C@H](C)c1ccccc1)C(C)(C)C (Suc-DE[Phe(2-Me)][Tle]L[X1]-{NH(1R-phenylethyl)}),1100
7,Cc1ccccc1C[C@H](NC(=O)[C@H](CCC(=O)O)NC(=O)[C@H](CC(=O)O)NC(=O)CCC(=O)O)C(=O)N[C@H](C(=O)N[C@@H](CC(C)C)C(=O)N[C@@H](CC(F)(F)F)C(=O)C(=O)N[C@@H](C)c1ccccc1)C(C)(C)C (Suc-DE[Phe(2-Me)][Tle]L[X1]-{NH(1S-phenylethyl)}),4
8,CC[C@H](NC(=O)C(=O)[C@H](CC(F)(F)F)NC(=O)[C@H](CC(C)C)NC(=O)[C@@H](NC(=O)[C@H](Cc1ccccc1C)NC(=O)[C@H](CCC(=O)O)NC(=O)[C@H](CC(=O)O)NC(=O)CCC(=O)O)C(C)(C)C)c1ccccc1 (Suc-DE[Phe(2-Me)][Tle]L[X1]-{NH(1S-phenylpropyl)}),7
9,Cc1ccccc1C[C@H](NC(=O)[C@H](CCC(=O)O)NC(=O)[C@H](CC(=O)O)NC(=O)CCC(=O)O)C(=O)N[C@H](C(=O)N[C@@H](CC(C)C)C(=O)N[C@@H](CC(F)(F)F)C(=O)C(=O)NCc1ccc(O)cc1)C(C)(C)C (Suc-DE[Phe(2-Me)][Tle]L[X1]-{NH(4-OH-benzyl)}),4

# Target: Trypsin (Homo sapiens, UniProt P07477+P07478+P35030)
# Assay: Compound was tested for inhibition of trypsin
# Assay type: protein assay
row,SMILES,IC50 [nM]
1,CCCC[C@H](NC(=O)[C@H](CC(C)C)NC(=O)[C@@H](NC(=O)[C@H](Cc1ccccc1C)NC(=O)[C@H](CCC(=O)O)NC(=O)[C@H](CC(=O)O)NC(=O)CCC(=O)O)C(C)(C)C)C(=O)C(N)=O (Suc-DE[Phe(2-Me)][Tle]L-NleCONH2),> 200000
